A short description of data set [1]: Animal mortality and survival after intra-tumoural injection in tumour-bearing nude mice. The settings on record: for animal mortality rate: intratumoural. The class given is in vivo. How it is done:
The following protocol was adopted: • 1. Culture of human cells and implantation of the tumour cells as solid tumours in nude mice: The carcinoma cell-line was cultured in RPMI and Ham's F-12 media respectively with 10% fetal calf serum in a CO2 incubator and subcultured every two to three days until growing to a number enough for implantation in animals. The cells were then implanted as solid tumors in nude mice]. The cells were collected in HBSS (Hanks balanced salt solution). One hundred microliters of cell suspension in HBSS (5×10^6 cells) was injected subcutaneously into right gluteal region of nude mice (female, 6 to 9 week old nude mice with average body weight of 25 g, housed in pathogen-free conditions) using a 25-gauge needle. • 2. Animals groups: Animals were randomly grouped into control 1 (injected with peanut oil), control 2 (injected with porous silicon without drug), free chlorambucil (drug injected without porous silicon directly into tumour or injected via intraperitoneal route) and chlorambucil impregnated porous silicon groups. Each group included 16 to 20 animals. • 3. Injection of chlorambucil impregnated porous silicon in transplanted tumours: On day 14 after implantation of tumours (diameter of the tumour about lcm), the chlorambucil impregnated formulation was applied to the centre of the tumours. • 4. Tumour volumetrics: The sizes of implanted tumours in nude mice was estimated every 3 days. The largest and smallest diameters were measured by a vernier caliper and tumour volumes estimated according the formula: V=½ ab^2, where a and b are largest and smallest tumour diameters respectively, and V is the tumour volume in cm^3.
The effects of intra-tumoural administered chlorambucil loaded porous silicon on the growth of the tumour was studied and compared with control and systemic therapy groups. The body weight of the animals was estimated by subtracting the tumour volume (cm3) from the total body weight (g) every 3 days. The survival time of each experimental animal was recorded. […]

Data set [2] concerns HeLa cells. The data set can be described thus: Live/Dead cell assay. To be noted: 24 hours, chlorambucil 90 μg/ml.
Procedure: Cells with formulated drug were collected at 24 hours after incubation, placed into sterile plastic tubes and centrifuged. The supernatants were aspirated out and the cell pellets were washed gently with copious amount of PBS and centrifuged to remove any excipient. The cell pellet was dislodged gently and incubated with 300 μl of Live/dead cell assay reagent and incubated for 45 minutes on a rocker with gentle shaking (20 shakes per minute). At the end of incubation the cells were spun down, washed twice with PBS, reconstituted with 1 ml of PBS and transferred into a plate to capture the images of Live/Dead cells using fluorescent microscope.
The Live/Dead cell assay was performed on HeLa cell cultures grown on collagen coated plated and treated with various forms of porous silicon (AN^+/SE, loaded/unloaded, pre-formulated/formulated).
The procedure was performed on adherent cells after the floating cells were washed off. […] Therefore, percentage of live and dead cells was calculated from the adherent cells stuck to the bottom of the wells. Each sample was run in triplicate wells and one microscopic field image from each well was captured and the live and dead cells were counted to get an average % of cytotoxicity.

Experimental findings from US20070042046A1, “Methods for the treatment of cancer” (priority 2003, published 2007) are described below.

Bounds are passed on as bounds.

As to `O=C(O)CCCc1ccc(N(CCCl)CCCl)cc1` [chlorambucil, 4-[bis(2-chloroethyl)amino}benzenebutanoic acid], the animal mortality rate was determined as 50% in data set [1] (720 ug) and 90% in data set [1] (1500 ug (2×LD50)). The compound further registered an LD50 in data set [1] (nude mice, free drug) of 720 µg. In data set [2], the “dead cell percentage (cytotoxicity)” value is given as not below 95%.
